Counter-ions that a name gives are not always drawn.

T1 sequence (P01116 1-188 isoform P01116-2 G12D): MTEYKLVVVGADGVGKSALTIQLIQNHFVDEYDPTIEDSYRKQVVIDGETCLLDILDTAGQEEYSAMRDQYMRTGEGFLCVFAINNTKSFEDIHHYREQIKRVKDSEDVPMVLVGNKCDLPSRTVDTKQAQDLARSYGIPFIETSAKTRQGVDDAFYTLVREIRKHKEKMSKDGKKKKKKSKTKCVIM

This experiment has as its target T1, KRAS-G12D and SOS1 (Homo sapiens, UniProt P01116, G12D).
T1 construct: purchased
Kind of experiment: Inhibition of KRAS-G12D/SOS1 binding (Cisbio binding kit, 665/615 ratio), Effect Embodiment A. As to conditions: read-out: GTP-KRAS-G12D:SOS1 IC50. As to the method: Similarly, the first dilution point of the compound to be tested was its storage solution, and the solution was 3-fold diluted, with 11+0 points of dilution. Echo was used to transfer 0.2 μL gradient diluted solution of the compounds into a 384-well plate, with 2 duplicated wells for each compound, and the final concentration of DMSO was 1%. The solution was centrifuged for 1 min at 1000 rpm/min.
IC50 of the compounds was fitted by Graphpad Prism 8 nonlinear regression equation: […]
The IC50 (half inhibitory concentration) of the compound was obtained by using the following nonlinear fitting formula: […]
As for `N#Cc1cccc2cc(O)cc(-c3c(F)cc4c(N5CC6CCC(C5)N6)nc(OCCCN5C6CCC5COC6)nc4c3F)c12` (single isomer, unassigned) [Compound 278b, 8-((7R or 7S)-2-(3-(3-oxa-8-azabicyclo[3.2.1]octan-8-yl)propoxy)-4-((1R,5S)-3,8-diazabicyclo[3.2.1]octan-3-yl)-6,8-difluoroquinazolin-7-yl)-6-hydroxy-1-naphthonitrile diformate], the IC50 – broadly, the point on the concentration scale where inhibition reaches its midpoint – is 2480 nM.
As to `CN(C)CCCOc1nc(N2CC3CCC(C2)N3)c2cc(Cl)c(-c3cc(O)cc4ccccc34)c(F)c2n1` (single isomer, unassigned) [Compound 40b, (R or S)-4-(4-((1R,5,S)-3,8-diazabicyclo[3.2.1]octan-3-yl)-6-chloro-2-(3-(dimethylamino)propoxy)-8-fluoroquinazolin-7-yl)naphthalen-2-ol], the IC50 is 4800 nM.
To `CN1CCC[C@H]1COc1nc(N2CC3CCC(C2)N3C(=O)CN)c2cc(Cl)c(-c3cc(O)cc4ccccc34)c(F)c2n1` (single isomer, unassigned) [Compound 156, 2-Amino-1-((1R,5S)-3-((S or R)-6-chloro-8-fluoro-7-(3-hydroxynaphthalen-1-yl)-2-((S)-1-methylpyrrolidin-2-yl)methoxy)quinazin-4-yl)-3,8-diazacyclo[3.2.1]octan-8-yl)ethan-1-one dihydrochloride] belongs 621 nM.
To `CN(C)C1CN(c2nc(N3CC4CCC(C3)N4)c3cc(Cl)c(-c4cc(O)cc5cccc(Cl)c45)c(F)c3n2)C1` (single isomer, unassigned) [Compound 65a, 4-((S or R)-4-((1R,5S)-3,8-diazabicyclo[3.2.1]octan-3-yl)-6-chloro-2-(3-(dimethylamino)azetidin-1-yl)-8-fluoroquinazolin-7-yl)-5-chloronaphthalen-2-ol] belongs 44600 nM; to `CCN(CC)CCCOc1nc(N2CC3CCC(C2)N3)c2cc(Cl)c(-c3cc(O)cc4ccccc34)c(F)c2n1` (single isomer, unassigned) [Compound 53b, 4-((R or S)-4-((1R,5,S)-3,8-diazabicyclo[3.2.1]octan-3-yl)-6-chloro-2-(3-(diethylamino)propoxy)-8-fluoroquinazolin-7-yl)naphthalen-2-ol], 2290 nM; to `Oc1cc(-c2c(Cl)cc3c(N4CC5CCC(C4)N5)nc(OCC(CN4C5CCC4COC5)C(F)(F)F)nc3c2F)c2ccccc2c1` (single isomer, unassigned) [Compound 218b, 4-((7S or 7R)-2-((2R or 2S)-2-((3-oxa-8-azabicyclo[3.2.1]octan-8-yl)methyl)-3,3,3-trifluoropropoxy)-4-((1R,5S)-3,8-diazabicyclo[3.2.1]octan-3-yl)-6-chloro-8-fluoroquinazolin-7-yl)naphthalen-2-ol formate], 250 nM.
Then `CN1CCC[C@H]1COc1nc(N2CCN[C@@H](CC#N)C2)c2cc(Cl)c(-c3cc(O)cc4ccccc34)c(F)c2n1` (single isomer, unassigned) [Compound 153a, 2-((S)-4-((S or R)-6-chloro-8-fluoro-7-(3-hydroxynaphthalen-1-yl)-2-((S)-1-methylpyrrolidin-2-yl)methoxy)quinazolin-4-yl)piperazin-2-yl)acetonitrile], with 965 nM; and `CN(C)CCCOc1nc2c(c(N3CCNCC3)n1)CCN(c1cc(O)cc3ccccc13)C2` [Compound 73, 4-(2-(3-(Dimethylamino)propoxy)-4-(piperazin-1-yl)-5,8-dihydropyrido[3,4-d]pyrimidin-7(6H)-yl)naphthalen-2-ol], with 15700 nM; and `CN(C)C1CN(c2nc(C3(C(N)=O)CNC3)c3cc(Cl)c(-c4cc(O)cc5ccccc45)c(F)c3n2)C1` (single isomer, unassigned) [Compound 22b, (R or S)-3-(6-chloro-2-(3-(dimethylamino)azetidin-1-yl)-8-fluoro-7-(3-hydroxynaphthalen-1-yl)quinazolin-4-yl)azetidin-3-carboxamide bistrifluoroacetate], with 2420 nM.
With `C[C@H]1CCCN1CCCOc1nc(N2CC3CCC(C2)N3)c2cc(Cl)c(-c3cc(O)cc4ccccc34)c(F)c2n1` (single isomer, unassigned) [Compound 108b, 4-((S or R)-4-((1R,5S)-3,8-diazabicyclo[3.2.1]octan-3-yl)-6-chloro-8-fluoro-2-(3-((S)-2-methylpyrrolidin-1-yl)propoxy)quinazolin-7-yl)naphthalen-2-ol dihydrochloride], the IC50 is 108 nM.
Then `CN(C)C1CN(c2nc(N3CC4CCC(C3)N4C)c3cc(Cl)c(-c4cc(O)cc5ccccc45)c(F)c3n2)C1` (single isomer, unassigned) [Compound 86, 4-((S or R)-6-chloro-2-(3-(dimethylamino)azetidin-1-yl)-8-fluoro-4-((1R,5S)-8-methyl)-3,8-diazabicyclo[3.2.1]octan-3-yl)quinazolin-7-yl)naphthalen-2-ol], with 3570 nM.
Regarding `CCCN(C)CC1(COc2nc(N3C[C@H]4CC[C@@H](C3)N4)c3cc(Cl)c(-c4cc(O)cc5ccccc45)c(F)c3n2)CC1` (single isomer, unassigned) [Compound 185, (R or S)-4-(4-((1R,5S)-3,8-diazabicyclo[3.2.1]octan-3-yl)-6-chloro-8-fluoro-2-((1-((methyl(propyl)amino)methyl)cyclopropyl)methoxy)quinazolin-7-yl)naphthalen-2-ol diformate], the IC50 worked out at 387 nM.
To `CN(C)C1CN(c2nc(N3C[C@H]4CNC[C@H]4C3)c3cc(Cl)c(-c4cc(O)cc5ccccc45)c(F)c3n2)C1` (single isomer, unassigned) [Compound 13a, (R or S)-4-(6-chloro-2-(3-(dimethylamino)azetidin-1-yl)-8-fluoro-4-((3aR,6aS)-hexahydro-pyrrolo[3,4-c]pyrrol-2 (1H)-yl)quinazolin-7-yl)naphthalen-2-ol] belongs 2240 nM.
Consider `CN(C)C1CN(c2nc(N=S3(=O)CCC(N)CC3)c3cc(Cl)c(-c4cc(O)cc5ccccc45)c(F)c3n2)C1` (single isomer, unassigned) [Compound 72a, (4R or S)-4-amino-1-(((R or S)-6-chloro-2-(3-(dimethylamino)azetidin-1-yl)-8-fluoro-7-(3-hydroxynaphthalen-1-yl)quinazolin-4-yl)imino)hexahydro-1-thiopyran 1-oxide], for which the IC50 was greater than 200000 nM.
To `CN1CCN(c2nc(N3CC4CCC(C3)N4)c3cc(Cl)c(-c4cc(O)cc5ccccc45)c(F)c3n2)CC1` (single isomer, unassigned) [Compound 52b, 4-((R or S)-4-((1R,5S)-3,8-diazabicyclo[3.2.1]octan-3-yl)-6-chloro-8-fluoro-2-(4-methylpiperazin-1-yl)quinazolin-7-yl)naphthalen-2-ol] belongs 73900 nM.
Then `CNCCN(C)c1nc(N2CC(N(C)C)C2)nc2c(F)c(-c3cc(O)cc4ccccc34)c(Cl)cc12` (single isomer, unassigned) [Compound 16b, (S or R)-4-(6-chloro-2-(3-(dimethylamino)azetidin-1-yl)-8-fluoro-4-(methyl(2-(methylamino)ethyl)amino)quinazolin-7-yl)naphthalen-2-ol], with 83400 nM; and `CN(C)C1CN(c2nc(N3C[C@H]4CC[C@@H]3CN4)c3cc(Cl)c(-c4cc(O)cc5ccccc45)c(F)c3n2)C1` (single isomer, unassigned) [Compound 1a, (R or S)-4-(4-((1R,4R)-2,5-diazabicyclo[2.2.2]octan-2-yl)-6-chloro-2-(3-(dimethylamino)azetidin-1-yl)-8-fluoroquinazolin-7-yl)naphthalen-2-ol], with 6440 nM; and `Oc1cc(-c2c(Cl)cc3c(N4CC5CCC(C4)N5)nc(OCCN4CCOCC4)nc3c2F)c2ccccc2c1` (single isomer, unassigned) [Compound 121, 4-((S or R)-4-((1R,5S)-3,8-diazabicyclo[3.2.1]octan-3-yl)-6-chloro-8-fluoro-2-(2-(morpholinylethoxy)quinazolin-7-yl)naphthalen-2-oldihydrochloride], with 147 nM.
Then `Oc1cc(-c2c(Cl)cc3c(N4CC5CCC(C4)N5)nc(OCC(F)CN4C5CCC4COC5)nc3c2F)c2ccccc2c1` (single isomer, unassigned) [Compound 179a, ((4R or 4S)-4-(2-((2R or 2S)-3-(3-oxa-8-azabicyclo[3.2.1]octan-8-yl)-2-fluoropropoxy)-4-((1R,5S)-3,8-diazabicyclo[3.2.1]octan-3-yl)-6-chloro-8-fluoroquinazolin-7-yl)naphthalen-2-ol diformate], with 276 nM.
For `CN1CC(F)(F)C[C@H]1COc1nc(N2CC3CCC(C2)N3)c2cnc(-c3cc(O)cc4ccccc34)c(F)c2n1` [Compound 135, 4-(4-((1R,5S)-3,8-diazabicyclo[3.2.1]octan-3-yl)-2-((S)-4,4-difluoro-1-methylpyrrolidin-2-yl)methoxy)-8-fluoropyridinyl[4,3-d]pyrimidin-7-yl)naphthalen-2-ol formate], the IC50 is 133 nM.
For `CN(C)C1CN(c2nc(N=S3(=O)CCC(N)CC3)c3cc(Cl)c(-c4cc(O)cc5ccccc45)c(F)c3n2)C1` (single isomer, unassigned) [Compound 72c, (4S or R)-4-amino-1-(((R or S)-6-chloro-2-(3-(dimethylamino)azetidin-1-yl)-8-fluoro-7-(3-hydroxynaphthalen-1-yl)quinazolin-4-yl)imino)hexahydro-1-thiopyran 1-oxide], the IC50 is greater than 200000 nM.
To `CN(C)C1CN(c2nc(N[C@@H]3C[C@H]4CCC[C@@H](C3)N4)c3cc(Cl)c(-c4cc(O)cc5ccccc45)c(F)c3n2)C1` (single isomer, unassigned) [Compound 32, 4-((S or R)-4-(((1R,3S,5S)-9-azabicyclo[3.3.1]nonan-3-yl)amino)-6-chloro-2-(3-(dimethylamino)azetidin-1-yl)-8-fluoroquinazolin-7-yl)naphthalen-2-ol] belongs 187000 nM.

Values taken from US20230365563A1, “QUINAZOLINE COMPOUND AND APPLICATION THEREOF” (SHANGHAI PHARMACEUTICALS HOLDING CO., LTD., priority 2020, published 2023).
